In ChEMBL document CHEMBL1156052, “Discovery of 1-[4-(3-chlorophenylamino)-1-methyl-1H-pyrrolo[3,2-c]pyridin-7-yl]-1-morpholin-4-ylmethanone (GSK554418A), a brain penetrant 5-azaindole CB2 agonist for the treatment of chronic pain” (J Med Chem, 2009):
The source made the active and inactive calls. The rule behind the calls is not given here.

What was measured:
Cannabinoid receptor 1 [1] = molecular target: T1, Cannabinoid receptor 1 (Homo sapiens, UniProt P21554); assay: Agonist activity at human recombinant cannabinoid CB1 receptor expressed in MMY23 Saccharomyces cerevisiae assessed as degradation of FDGlu to fluorescein after 24 hrs by spectrofluorimetry; assay type: functional
T1 sequence (P21554 whole entry): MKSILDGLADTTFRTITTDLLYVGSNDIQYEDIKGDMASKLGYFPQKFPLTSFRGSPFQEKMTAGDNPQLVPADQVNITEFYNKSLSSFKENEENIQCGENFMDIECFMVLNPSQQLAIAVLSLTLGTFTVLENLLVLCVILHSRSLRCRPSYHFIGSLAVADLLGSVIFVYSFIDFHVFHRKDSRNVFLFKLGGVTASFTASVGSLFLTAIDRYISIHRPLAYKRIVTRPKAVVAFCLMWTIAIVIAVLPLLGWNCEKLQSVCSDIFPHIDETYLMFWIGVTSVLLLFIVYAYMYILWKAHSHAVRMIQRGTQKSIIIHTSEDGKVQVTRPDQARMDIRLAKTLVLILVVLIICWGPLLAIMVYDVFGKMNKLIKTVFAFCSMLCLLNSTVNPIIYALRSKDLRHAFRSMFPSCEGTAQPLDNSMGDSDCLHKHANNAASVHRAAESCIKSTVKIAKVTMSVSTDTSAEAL

[2] = molecular target: Substance-K receptor (Homo sapiens) (UniProt P21452); assay: Binding affinity to human NK2 receptor at 1 uM
[3] = Binding affinity to GABA receptor at 1 uM
[4] = molecular target: D(1A) dopamine receptor (Homo sapiens) (UniProt P21728); assay: Binding affinity to human dopamine D1 receptor at 1 uM
Chain of D(1A) dopamine receptor (Homo sapiens) (P21728 whole entry): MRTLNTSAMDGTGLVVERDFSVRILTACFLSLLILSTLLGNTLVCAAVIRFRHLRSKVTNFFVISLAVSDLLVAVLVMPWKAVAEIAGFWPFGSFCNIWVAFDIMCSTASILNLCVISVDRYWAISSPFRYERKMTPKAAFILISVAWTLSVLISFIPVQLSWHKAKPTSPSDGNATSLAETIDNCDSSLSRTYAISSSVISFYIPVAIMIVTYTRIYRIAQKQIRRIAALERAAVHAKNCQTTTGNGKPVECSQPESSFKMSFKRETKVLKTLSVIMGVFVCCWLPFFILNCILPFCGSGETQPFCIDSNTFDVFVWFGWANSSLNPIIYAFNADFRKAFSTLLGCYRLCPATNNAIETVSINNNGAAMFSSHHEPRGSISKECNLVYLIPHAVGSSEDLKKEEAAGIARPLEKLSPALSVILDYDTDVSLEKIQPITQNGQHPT

[5] = Drug level in rat blood at 130 mg/kg, po after 1 hr; assay type: ADME, organism-based; design: dose 130 mg/kg, route oral; details: read-out: Drug uptake
[6] = molecular target: Adenosine receptor A1 (Homo sapiens) (UniProt P30542); assay: Binding affinity to human adenosine A1 receptor at 1 uM
[7] = molecular target: Histamine H1 receptor (Homo sapiens) (UniProt P35367); assay: Binding affinity to human histamine H1 receptor at 1 uM
[8] = molecular target: Beta-1 adrenergic receptor (Homo sapiens) (UniProt P08588); assay: Binding affinity to human beta-1 adrenergic receptor at 1 uM
Chain of Beta-1 adrenergic receptor (Homo sapiens) (P08588 whole entry, looked up): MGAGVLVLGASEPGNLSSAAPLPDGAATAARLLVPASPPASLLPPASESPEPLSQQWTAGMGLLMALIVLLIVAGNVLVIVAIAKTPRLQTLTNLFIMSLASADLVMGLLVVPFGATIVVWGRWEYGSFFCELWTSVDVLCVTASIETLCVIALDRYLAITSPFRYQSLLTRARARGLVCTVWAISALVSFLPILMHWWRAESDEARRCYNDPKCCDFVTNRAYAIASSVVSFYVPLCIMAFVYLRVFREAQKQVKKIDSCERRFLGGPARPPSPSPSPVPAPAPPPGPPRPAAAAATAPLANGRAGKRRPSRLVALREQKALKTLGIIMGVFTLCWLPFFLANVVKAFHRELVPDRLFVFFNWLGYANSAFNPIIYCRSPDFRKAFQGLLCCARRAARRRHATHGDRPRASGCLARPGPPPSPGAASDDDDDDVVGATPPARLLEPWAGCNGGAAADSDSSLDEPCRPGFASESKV

[9] = molecular target: Muscarinic acetylcholine receptor M3 (Homo sapiens) (UniProt P20309); assay: Binding affinity to human muscarinic M3 receptor at 1 uM
Chain of Muscarinic acetylcholine receptor M3 (Homo sapiens) (P20309 whole entry, looked up): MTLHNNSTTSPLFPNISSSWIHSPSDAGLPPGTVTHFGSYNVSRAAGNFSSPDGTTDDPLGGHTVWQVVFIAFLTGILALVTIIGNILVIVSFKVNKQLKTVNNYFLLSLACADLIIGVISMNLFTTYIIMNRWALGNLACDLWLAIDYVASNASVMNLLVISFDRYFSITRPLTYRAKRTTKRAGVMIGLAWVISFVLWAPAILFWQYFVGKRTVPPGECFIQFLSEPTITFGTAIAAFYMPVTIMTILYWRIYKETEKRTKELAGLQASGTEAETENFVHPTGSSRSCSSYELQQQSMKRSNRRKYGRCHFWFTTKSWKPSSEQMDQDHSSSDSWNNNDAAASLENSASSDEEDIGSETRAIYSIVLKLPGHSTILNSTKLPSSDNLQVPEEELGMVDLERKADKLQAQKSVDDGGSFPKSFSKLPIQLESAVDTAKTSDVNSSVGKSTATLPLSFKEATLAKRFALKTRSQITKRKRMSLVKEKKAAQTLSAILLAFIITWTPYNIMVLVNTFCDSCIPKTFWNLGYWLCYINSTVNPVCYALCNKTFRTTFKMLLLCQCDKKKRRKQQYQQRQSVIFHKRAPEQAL

[10] = Binding affinity to central benzodiazepine receptor at 1 uM
[11] = molecular target: Adenosine receptor A3 (Homo sapiens) (UniProt P0DMS8); assay: Binding affinity to human adenosine A3 receptor at 1 uM
Chain of Adenosine receptor A3 (Homo sapiens) (P0DMS8 whole entry): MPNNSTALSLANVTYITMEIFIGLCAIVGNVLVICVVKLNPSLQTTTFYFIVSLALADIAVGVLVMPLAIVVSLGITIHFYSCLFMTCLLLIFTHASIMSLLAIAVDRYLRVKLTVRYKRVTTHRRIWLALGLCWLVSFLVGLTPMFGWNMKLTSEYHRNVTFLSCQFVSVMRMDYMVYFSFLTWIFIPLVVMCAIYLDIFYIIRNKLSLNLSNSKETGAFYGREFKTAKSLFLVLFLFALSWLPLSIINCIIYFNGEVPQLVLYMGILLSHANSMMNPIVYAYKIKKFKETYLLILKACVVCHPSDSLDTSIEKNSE

[12] = molecular target: D(2) dopamine receptor (Homo sapiens) (UniProt P14416); assay: Binding affinity to human dopamine D2S receptor at 1 uM
[13] = Binding affinity to adrenergic alpha1 receptor at 1 uM
[14] = molecular target: Alpha-2A adrenergic receptor (Homo sapiens) (UniProt P08913); assay: Binding affinity to adrenergic alpha2 receptor at 1 uM
Chain of Alpha-2A adrenergic receptor (Homo sapiens) (P08913 whole entry): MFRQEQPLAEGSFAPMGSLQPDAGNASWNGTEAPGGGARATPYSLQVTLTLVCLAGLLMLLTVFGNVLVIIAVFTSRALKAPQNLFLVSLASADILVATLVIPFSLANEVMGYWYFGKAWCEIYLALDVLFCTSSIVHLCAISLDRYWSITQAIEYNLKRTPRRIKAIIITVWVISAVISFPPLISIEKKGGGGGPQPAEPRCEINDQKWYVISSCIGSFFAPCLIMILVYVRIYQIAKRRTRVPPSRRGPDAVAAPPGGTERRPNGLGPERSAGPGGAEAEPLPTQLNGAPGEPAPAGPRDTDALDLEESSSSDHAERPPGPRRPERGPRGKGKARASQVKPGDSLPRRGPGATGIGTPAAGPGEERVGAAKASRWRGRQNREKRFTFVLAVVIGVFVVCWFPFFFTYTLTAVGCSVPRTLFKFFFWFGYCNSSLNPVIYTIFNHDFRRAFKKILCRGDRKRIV

[15] = molecular target: Endothelin-1 receptor (Homo sapiens) (UniProt P25101); assay: Binding affinity to human ETA receptor at 1 uM
[16] = molecular target: Muscarinic acetylcholine receptor M4 (Homo sapiens) (UniProt P08173); assay: Binding affinity to human muscarinic M4 receptor at 1 uM
[17] = molecular target: Muscarinic acetylcholine receptor M2 (Homo sapiens) (UniProt P08172); assay: Binding affinity to human muscarinic M2 receptor at 1 uM
Rattus norvegicus [18] = assay: Induction of hypothermia in rat at 130 mg/kg, po after 1 to 3 hrs; assay type: organism-based; design: dose 130 mg/kg, route oral; details: in vivo
[19] = molecular target: Adenosine receptor A2a (Homo sapiens) (UniProt P29274); assay: Binding affinity to human adenosine A2A receptor at 1 uM
Chain of Adenosine receptor A2a (Homo sapiens) (P29274 whole entry): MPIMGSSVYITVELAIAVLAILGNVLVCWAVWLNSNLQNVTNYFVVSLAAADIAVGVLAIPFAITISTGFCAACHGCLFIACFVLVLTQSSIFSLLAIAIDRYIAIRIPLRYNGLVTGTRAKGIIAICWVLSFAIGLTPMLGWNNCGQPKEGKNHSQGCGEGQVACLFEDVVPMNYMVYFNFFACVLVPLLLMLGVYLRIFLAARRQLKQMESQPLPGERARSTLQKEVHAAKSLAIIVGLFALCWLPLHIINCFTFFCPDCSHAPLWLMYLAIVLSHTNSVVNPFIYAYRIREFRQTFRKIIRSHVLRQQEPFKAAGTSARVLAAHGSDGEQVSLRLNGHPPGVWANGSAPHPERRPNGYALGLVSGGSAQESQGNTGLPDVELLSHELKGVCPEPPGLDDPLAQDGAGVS

[20] = molecular target: Galanin receptor type 2 (Homo sapiens) (UniProt O43603); assay: Binding affinity to human GAL2 receptor at 1 uM
[21] = molecular target: C-X-C chemokine receptor type 2 (Homo sapiens) (UniProt P25025); assay: Binding affinity to human CXCR2 receptor at 1 uM
Cannabinoid receptor 1 [22] = molecular target: Cannabinoid receptor 1 (Rattus norvegicus, UniProt P20272); assay: Agonist activity at cannabinoid CB1 receptor at rat cerebellum by GTPgammaS binding assay; assay type: functional, tissue-based
Rattus norvegicus [23] = assay: Induction of hypothermia in rat at 130 mg/kg, po after 5 hrs; assay type: organism-based; design: dose 130 mg/kg, route oral; details: in vivo
[24] = molecular target: B2 bradykinin receptor (Homo sapiens) (UniProt P30411); assay: Binding affinity to human bradykinin B2 receptor at 1 uM
Chain of B2 bradykinin receptor (Homo sapiens) (P30411 whole entry): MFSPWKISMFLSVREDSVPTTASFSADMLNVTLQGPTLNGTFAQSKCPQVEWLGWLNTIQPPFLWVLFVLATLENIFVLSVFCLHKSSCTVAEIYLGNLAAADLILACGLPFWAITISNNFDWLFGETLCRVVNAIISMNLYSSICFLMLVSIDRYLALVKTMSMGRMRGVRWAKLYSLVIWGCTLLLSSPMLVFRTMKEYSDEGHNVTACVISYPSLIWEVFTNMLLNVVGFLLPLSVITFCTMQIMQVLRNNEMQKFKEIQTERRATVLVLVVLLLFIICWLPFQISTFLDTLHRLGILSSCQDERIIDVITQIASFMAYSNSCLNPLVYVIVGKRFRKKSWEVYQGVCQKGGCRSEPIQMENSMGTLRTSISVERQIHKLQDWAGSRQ

[25] = molecular target: Histamine H2 receptor (Homo sapiens) (UniProt P25021); assay: Binding affinity to human histamine H2 receptor at 1 uM
Chain of Histamine H2 receptor (Homo sapiens) (P25021 whole entry): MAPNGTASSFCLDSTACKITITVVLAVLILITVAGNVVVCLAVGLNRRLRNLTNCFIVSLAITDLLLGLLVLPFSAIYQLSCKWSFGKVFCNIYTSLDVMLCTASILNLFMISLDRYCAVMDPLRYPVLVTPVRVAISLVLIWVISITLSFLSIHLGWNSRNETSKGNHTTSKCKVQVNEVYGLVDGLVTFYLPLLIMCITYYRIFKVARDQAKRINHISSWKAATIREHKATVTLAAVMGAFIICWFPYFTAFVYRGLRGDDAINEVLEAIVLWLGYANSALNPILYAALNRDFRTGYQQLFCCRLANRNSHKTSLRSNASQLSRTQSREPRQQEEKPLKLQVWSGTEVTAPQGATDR

[26] = molecular target: Muscarinic acetylcholine receptor M1 (Homo sapiens) (UniProt P11229); assay: Binding affinity to human muscarinic M1 receptor at 1 uM
[27] = molecular target: Melatonin receptor type 1A (Homo sapiens) (UniProt P48039); assay: Binding affinity to human ML1 receptor at 1 uM
Chain of Melatonin receptor type 1A (Homo sapiens) (P48039 whole entry): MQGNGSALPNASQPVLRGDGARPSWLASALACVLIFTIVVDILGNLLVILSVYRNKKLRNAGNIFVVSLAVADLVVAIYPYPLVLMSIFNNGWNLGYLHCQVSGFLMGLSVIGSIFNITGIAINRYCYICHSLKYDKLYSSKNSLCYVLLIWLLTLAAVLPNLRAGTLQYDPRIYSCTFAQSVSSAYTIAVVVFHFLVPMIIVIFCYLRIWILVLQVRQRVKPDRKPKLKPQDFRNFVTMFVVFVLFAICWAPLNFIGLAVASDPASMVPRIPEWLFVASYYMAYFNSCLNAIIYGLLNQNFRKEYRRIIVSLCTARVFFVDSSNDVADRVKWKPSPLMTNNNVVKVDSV

[28] = Drug level in rat blood at 130 mg/kg, po after 3 hrs; assay type: ADME, organism-based; design: dose 130 mg/kg, route oral; details: read-out: Drug uptake
[29] = molecular target: Type-1 angiotensin II receptor (Homo sapiens) (UniProt P30556); assay: Binding affinity to human AT1 receptor at 1 uM
[30] = molecular target: Melanocortin receptor 4 (Homo sapiens) (UniProt P32245); assay: Binding affinity to human MC4 receptor at 1 uM
[31] = molecular target: Cholecystokinin receptor type A (Homo sapiens) (UniProt P32238); assay: Binding affinity to human CCKA receptor at 1 uM
[32] = molecular target: Cannabinoid receptor 1 (Rattus norvegicus) (UniProt P20272); assay: Agonist activity at cannabinoid CB1 receptor at rat cerebellum by GTPgammaS binding assay relative to HU210; assay type: functional
Cannabinoid receptor 2 [33] = molecular target: T2, Cannabinoid receptor 2 (Homo sapiens, UniProt P34972); assay: Agonist activity at human recombinant cannabinoid CB2 receptor expressed in MMY23 Saccharomyces cerevisiae assessed as degradation of FDGlu to fluorescein after 24 hrs by spectrofluorimetry; assay type: functional
T2 sequence (P34972 whole entry): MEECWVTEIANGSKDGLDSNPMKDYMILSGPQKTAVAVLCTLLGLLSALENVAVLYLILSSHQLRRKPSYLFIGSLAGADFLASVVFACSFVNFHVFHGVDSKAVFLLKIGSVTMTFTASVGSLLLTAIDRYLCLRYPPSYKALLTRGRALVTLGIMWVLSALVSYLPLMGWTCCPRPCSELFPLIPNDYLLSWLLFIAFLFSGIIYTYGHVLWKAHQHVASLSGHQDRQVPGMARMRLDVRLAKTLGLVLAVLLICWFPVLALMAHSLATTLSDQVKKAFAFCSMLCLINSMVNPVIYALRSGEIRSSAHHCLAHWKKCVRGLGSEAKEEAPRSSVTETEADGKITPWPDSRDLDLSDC

Cannabinoid receptor 2 [34] = molecular target: T2, Cannabinoid receptor 2; assay: Agonist activity at human recombinant cannabinoid CB2 receptor expressed in MMY23 Saccharomyces cerevisiae assessed as degradation of FDGlu to fluorescein after 24 hrs by spectrofluorimetry relative to HU210; assay type: functional
Cannabinoid receptor 1 [35] = molecular target: T1, Cannabinoid receptor 1; assay: Agonist activity at human recombinant cannabinoid CB1 receptor expressed in MMY23 Saccharomyces cerevisiae assessed as degradation of FDGlu to fluorescein at 30 uM after 24 hrs by spectrofluorimetry; assay type: functional
Cannabinoid receptor 1 [36] = molecular target: T1, Cannabinoid receptor 1; assay: Agonist activity at human recombinant cannabinoid CB1 receptor expressed in MMY23 Saccharomyces cerevisiae assessed as degradation of FDGlu to fluorescein after 24 hrs by spectrofluorimetry relative to HU210; assay type: functional
Homo sapiens = organism: Homo sapiens; assay: Selectivity ratio of EC50 for human recombinant cannabinoid CB1 receptor to EC50 for human recombinant cannabinoid CB2 receptor

CCCCCCC(C)(C)c1cc(O)c2c(c1)OC(C)(C)[C@@H]1CC=C(CO)C[C@@H]21
EC50 (Cannabinoid receptor 1 [1]): 40 nM

Cn1ccc2c(Nc3cccc(Cl)c3)ncc(Br)c21
Activity [2]: < 10%
Activity [3]: < 10%
Activity [4]: < 10%
concentration at 1 h [5]: 10.9 µM
Activity [6]: < 10%
Activity [7]: < 10%
Activity [8]: < 10%
Activity [9]: < 10%
Activity [10]: < 10%
Activity [11]: < 10%
Activity [12]: < 10%
Activity [13]: < 10%
Activity [14]: 25%
Activity [15]: < 10%
Activity [16]: < 10%
Activity [17]: < 10%
Activity (Rattus norvegicus [18]): Non-toxic
Activity [19]: < 10%
Activity [20]: < 10%
Activity [21]: < 10%
EC50 (Cannabinoid receptor 1 [22]): 2510 nM
Activity (Rattus norvegicus [23]): Toxic
Activity [24]: < 10%
Activity [25]: < 10%
Activity [26]: < 10%
Activity [27]: < 10%
concentration at 3 h [28]: 14.7 µM
Activity [29]: < 10%
Activity [30]: < 10%
Activity [31]: < 10%
Efficacy [32]: 59%

Cc1c[nH]c2c(Nc3cccc(Cl)c3)ncc(C(=O)NC3CCOCC3)c12
EC50 (Cannabinoid receptor 2 [33]): 1700 nM
Efficacy (Cannabinoid receptor 2 [34]): 79%
EC50 (Cannabinoid receptor 1 [1]): > 30000 nM

Cc1c[nH]c2c(Nc3cccc(Cl)c3)ncc(C(=O)NCC3CCOCC3)c12
EC50 (Cannabinoid receptor 2 [33]): 265 nM
Efficacy (Cannabinoid receptor 2 [34]): 95%
EC50 (Cannabinoid receptor 1 [1]): > 30000 nM

COc1cccc(Nc2ncc(C(=O)N3CCOCC3)c3c(C)c[nH]c23)c1
Activity (Cannabinoid receptor 1 [35]): inactive
EC50 (Cannabinoid receptor 2 [33]): 48 nM
Efficacy (Cannabinoid receptor 1 [36]): 69%
Efficacy (Cannabinoid receptor 2 [34]): 83%
EC50 (Cannabinoid receptor 1 [1]): 25100 nM

Cc1cn(C)c2c(Nc3cccc(Cl)c3)ncc(C(=O)N3CCOCC3)c12
EC50 (Cannabinoid receptor 2 [33]): 654 nM
Efficacy (Cannabinoid receptor 1 [36]): 45%
Efficacy (Cannabinoid receptor 2 [34]): 47%
EC50 (Cannabinoid receptor 1 [1]): 10000 nM

CCC(CC)Nc1ncc(C(=O)N2CCOCC2)c2c(C)c[nH]c12
EC50 (Cannabinoid receptor 2 [33]): 4670 nM
Efficacy (Cannabinoid receptor 2 [34]): 59%
EC50 (Cannabinoid receptor 1 [1]): > 30000 nM

Cc1c[nH]c2c(Nc3ccccc3OC(C)C)ncc(C(=O)N3CCOCC3)c12
Activity (Cannabinoid receptor 1 [35]): inactive
EC50 (Cannabinoid receptor 2 [33]): 188 nM
Ratio EC50 (Homo sapiens): > 100
Efficacy (Cannabinoid receptor 2 [34]): 73%
EC50 (Cannabinoid receptor 1 [1]): > 30000 nM

Cc1c[nH]c2c(Nc3ccccc3Cl)ncc(C(=O)N3CCOCC3)c12
Activity (Cannabinoid receptor 1 [35]): inactive
EC50 (Cannabinoid receptor 2 [33]): 123 nM
Efficacy (Cannabinoid receptor 1 [36]): 56%
Ratio EC50 (Homo sapiens): > 100
Efficacy (Cannabinoid receptor 2 [34]): 82%
EC50 (Cannabinoid receptor 1 [1]): 15800 nM

Cc1c[nH]c2c(Nc3cccc(C(F)(F)F)c3)ncc(C(=O)N3CCOCC3)c12
Activity (Cannabinoid receptor 1 [35]): inactive
EC50 (Cannabinoid receptor 2 [33]): 15 nM
Ratio EC50 (Homo sapiens): > 100
Efficacy (Cannabinoid receptor 2 [34]): 86%
EC50 (Cannabinoid receptor 1 [1]): > 30000 nM

Cc1c[nH]c2c(Nc3cccc(Br)c3)ncc(C(=O)N3CCOCC3)c12
EC50 (Cannabinoid receptor 2 [33]): 10 nM
Efficacy (Cannabinoid receptor 1 [36]): 43%
Efficacy (Cannabinoid receptor 2 [34]): 78%
EC50 (Cannabinoid receptor 1 [1]): 6300 nM
